Experimental data: patent publication US6794396B2, “Substituted pyridines useful for inhibiting cholesteryl ester transfer protein activity” (Pharmacia Corporation, priority 1998, dated 2004)
Where two headings read alike, the source gives them in different places.

Tests used:
[1] = molecular target: T1, CETP (Homo sapiens, UniProt P11597); test: CETP activity in vitro: transfer of [3H]CE from HDL donor to LDL acceptor particles; assay type: biochemical
T1 construct: made in house; host or cells: CHO cells (serum-free conditioned medium)
T1 sequence (P11597 18-493): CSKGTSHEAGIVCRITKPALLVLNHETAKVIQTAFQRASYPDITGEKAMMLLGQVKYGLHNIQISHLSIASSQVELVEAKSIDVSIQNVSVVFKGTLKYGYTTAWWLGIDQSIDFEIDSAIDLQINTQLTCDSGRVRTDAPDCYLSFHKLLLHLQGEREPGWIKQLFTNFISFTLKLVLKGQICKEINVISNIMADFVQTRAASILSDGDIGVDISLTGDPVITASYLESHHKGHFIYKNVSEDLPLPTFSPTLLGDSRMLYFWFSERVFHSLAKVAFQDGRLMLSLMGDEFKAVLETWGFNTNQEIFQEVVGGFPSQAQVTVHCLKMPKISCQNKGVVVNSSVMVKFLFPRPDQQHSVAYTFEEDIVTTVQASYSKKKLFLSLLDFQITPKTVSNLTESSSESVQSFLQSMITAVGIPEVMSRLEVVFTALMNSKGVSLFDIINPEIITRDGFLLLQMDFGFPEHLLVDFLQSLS
Procedure, shortened: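 CETP from conditioned medium of CETP-transfected CHO cells incubated with [3H]CE-labelled HDL donor and LDL acceptor, pH 7.4 Tris buffer with NaCl, EDTA and 1% BSA, 2 h at 37 °C. LDL precipitated with dextran sulfate/MgCl2, filtered, and transferred radioactivity counted; IC50 reported.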

[2] = 50% inhibition of [3H]CE transfer from HDL to LDL, 2 hours at 37° C., read-out: IC50(μm)
[3] = IC50(μm), 50% inhibition of [3H]CE transfer from HDL to LDL, 2 hours at 37° C.

## COC(=O)c1c(OC(=O)N(c2ccccc2)c2ccccc2)cc(C(F)(F)F)nc1C(F)(F)F [Compound 25, Methyl 2,6-Bis(trifluoromethyl)-4-(diphenylaminocarbonyloxy)-3-pyridinecarboxylate]
other
  melting point: 114 to 116 °C
[1]; [2]
  IC50: 40 µM

## COC(=O)c1c(C(F)F)nc(C(F)(F)F)c(C(=O)Sc2cc(C(C)(C)C)cc(C(C)(C)C)c2)c1CC(C)C [Compound 151, Methyl 2-(Difluoromethyl)-5-{[(3,5-di-t-butylphenyl)thio]carbonyl}-4-(2-methylpropyl)-6-(trifluoromethyl)-3-pyridinecarboxylate]
other
  melting point: 102.5 to 108.5 °C
[1]; [3]
  IC50: 60 µM

## COC(=O)c1c(C(F)F)nc(C(F)(F)F)c(C(=O)Sc2ccc(C)cc2C)c1CC(C)C [Compound 152, Methyl 2-(Difluoromethyl)-5-{[(2,4-dimethylphenyl)thio]carbonyl}-4-(2-methylpropyl)-6-(trifluoromethyl)-3-pyridinecarboxylate]
other
  melting point: 98.5 to 102.5 °C
[1]; [3]
  IC50: 60 µM

## COC(=O)c1c(C(F)F)nc(C(F)(F)F)c(C(=O)Sc2ccccc2OC)c1CC(C)C [Compound 153, Methyl 2-(Difluoromethyl)-4-(2-methylpropyl)-5-{[(2-methoxyphenyl)thio]carbonyl}-6-(trifluoromethyl)-3-pyridinecarboxylate]
other
  melting point: 100 to 102 °C
[1]; [3]
  IC50: 100 µM

## COC(=O)c1c(C(F)F)nc(C(F)(F)F)c(C(=O)Sc2cccc(OC)c2)c1CC(C)C [Compound 154, Methyl 2-(Difluoromethyl)-4-(2-methylpropyl)-5-{[(3-methoxyphenyl)thio]carbonyl}-6-(trifluoromethyl)-3-pyridinecarboxylate]
other
  melting point: 87 to 88.5 °C
[1]; [3]
  IC50: 100 µM

## COC(=O)c1c(C(F)F)nc(C(F)(F)F)c(C(=O)Sc2ccc(C(C)(C)C)cc2C(C)(C)C)c1CC(C)C [Compound 155, Methyl 2-(Difluoromethyl)-5-{[(2,4-di-t-butylphenyl)thio]carbonyl}-4-(2-methylpropyl)-6-(trifluoromethyl)-3-pyridinecarboxylate]
other
  melting point: 115.5 to 120.5 °C
[1]; [2]
  IC50: 50 µM

## COC(=O)c1c(C(F)F)nc(C(F)(F)F)c(C(=O)Sc2ccc(C(C)(C)C)cc2)c1CC(C)C [Compound 156, Methyl 5-{[(4-t-Butylphenyl)thio]carbonyl}-2-(difluoromethyl)-4-(2-methylpropyl)-6-(trifluoromethyl)-3-pyridinecarboxylate]
other
  melting point: 60.5 to 62.5 °C
[1]; [2]
  IC50: 100 µM

## COC(=O)c1c(C(F)F)nc(C(F)(F)F)c(C(=O)Sc2ccc(C)cc2C)c1CC(C)C [Compound 158, Methyl 2-(Difluoromethyl)-5-{[(2,4-dimethyl-phenyl)thio]carbonyl}-4-(2-methylpropyl)-6-(trifluoromethyl)-3-pyridinecarboxylate]
other
  melting point: 96 to 99 °C
[1]; [3]
  IC50: 100 µM

## COC(=O)c1c(C(F)F)nc(C(F)(F)F)c(C(=O)Sc2ccc(SC)cc2)c1CC(C)C [Compound 159, Methyl 2-(Difluoromethyl)-4-(2-methylpropyl)-5-{[(4-methylthiophenyl)thio]carbonyl}-6-(trifluoromethyl)-3-pyridinecarboxylate]
other
  melting point: 112 to 114 °C
[1]; [3]
  IC50: 80 µM

## COC(=O)c1c(C(F)F)nc(C(F)(F)F)c(C(=O)Sc2ccc(C(C)C)cc2Cc2ccc(F)cc2)c1CC(C)C [Compound 160, Methyl 2-(Difluoromethyl)-4-(2-methylpropyl)-5-{[(2-(4-fluorobenzyl)-4-isopropylphenyl)thio]carbonyl}-6-(trifluoromethyl)-3-pyridinecarboxylate]
other
  melting point: 86.5 to 91 °C
[1]; [2]
  IC50: 60 µM

## COC(=O)c1c(C(F)F)nc(C(F)(F)F)c(C(=O)Sc2ccc(F)cc2Cc2ccc(F)cc2)c1CC(C)C [Compound 161, Methyl 2-(Difluoromethyl)-4-(2-methylpropyl)-5-{[(2-(4-fluorobenzyl)-4-fluorophenyl)thio]carbonyl}-6-(trifluoromethyl)-3-pyridinecarboxylate]
other
  melting point: 105 to 107 °C
[1]; [2]
  IC50: 70 µM

## COC(=O)c1c(C(F)F)nc(C(F)(F)F)c(C(=O)Oc2c(C)cc([N+](=O)[O-])cc2C)c1CC(C)C [Compound 176, 3-Methyl 5-(2,6-Dimethyl-4-nitrophenyl) 2-(Difluoromethyl)-4-(2-methylpropyl)-6-(trifluoromethyl)-3,5-pyridicarboxylate]
other
  melting point: 96 to 97 °C

## OCc1c(C(F)(F)F)nc(C(F)F)c(C(F)c2ccc(C(F)(F)F)cc2)c1-c1ccc(F)cc1 (stereo not shown) [Compound 253]
[1]; Table 8, read-out: IC50
  IC50: 19 µM

## CCOC(=O)c1c(C(F)(F)F)nc(C(F)F)c(C(F)c2ccc(Cl)cc2)c1-c1ccc(F)cc1 (stereo not shown) [Compound 254]
[1]; Table 8, read-out: IC50
  IC50: 55 µM

## O=C(c1ccc(Cl)cc1)c1c(C(F)(F)F)nc(C(F)F)c(CO)c1-c1ccccc1 [Compound 258]
[1]; Table 8, read-out: IC50
  IC50: 15 µM

## O=C(c1ccc2ccccc2c1)c1c(C(F)(F)F)nc(C(F)F)c(CO)c1-c1ccccc1 [Compound 259]
[1]; Table 8, read-out: IC50
  IC50: 60 µM

## CC(C)c1ccc(C(=O)c2c(C(F)(F)F)nc(C(F)F)c(CO)c2-c2ccccc2)cc1 [Compound 263]
[1]; Table 8, read-out: IC50
  IC50: 40 µM

## O=C(c1ccc(Cl)cc1)c1c(C(F)(F)F)nc(C(F)F)c(CO)c1-c1ccccc1 [Compound 264]
[1]; Table 8, read-out: IC50
  IC50: 30 µM

## CC(C)c1ccc(C(F)c2c(C(F)(F)F)nc(C(F)F)c(CO)c2-c2ccccc2)cc1 (stereo not shown) [Compound 265]
[1]; Table 8, read-out: IC50
  IC50: 60 µM

## CC(C)c1ccc(C(O)c2c(C(F)(F)F)nc(C(F)F)c(CO)c2-c2ccccc2)cc1 (stereo not shown) [Compound 266]
[1]; Table 8, read-out: IC50
  IC50: > 100 µM

## CCOC(=O)c1c(C(F)(F)F)nc(C(F)F)c(C(F)c2ccc(Cl)cc2)c1-c1ccccc1 (stereo not shown) [Compound 267]
[1]; Table 8, read-out: IC50
  IC50: 70 µM

## CCOC(=O)c1c(C(F)(F)F)nc(C(F)F)c(C(F)c2ccc3ccccc3c2)c1-c1ccccc1 (stereo not shown) [Compound 268]
[1]; Table 8, read-out: IC50
  IC50: 70 µM

## OCc1c(C(F)F)nc(C(F)(F)F)c(C(O)c2ccc(Cl)cc2)c1-c1ccccc1 (stereo not shown) [Compound 269]
[1]; Table 8, read-out: IC50
  IC50: > 100 µM

## OCc1c(C(F)F)nc(C(F)(F)F)c(C(O)c2ccc3ccccc3c2)c1-c1ccccc1 (stereo not shown) [Compound 270]
[1]; Table 8, read-out: IC50
  IC50: > 100 µM

## CCOC(=O)c1c(C(F)(F)F)nc(C(F)F)c(C(F)c2ccc(C(C)C)cc2)c1-c1ccccc1 (stereo not shown) [Compound 271]
[1]; Table 8, read-out: IC50
  IC50: 70 µM

## CCOC(=O)c1c(C(F)(F)F)nc(C(F)F)c(C(O)c2ccc(Cl)cc2)c1-c1ccccc1 (stereo not shown) [Compound 272]
[1]; Table 8, read-out: IC50
  IC50: 90 µM

## CC(C)c1ccc(Cc2c(C(F)F)nc(C(F)(F)F)c(C=O)c2-c2ccccc2)cc1 [Compound 274]
[1]; Table 8, read-out: IC50
  IC50: 8 µM

## CC(C)c1ccc(C(O)c2c(C(F)F)nc(C(F)(F)F)c(CO)c2-c2ccccc2)cc1 (stereo not shown) [Compound 275]
[1]; Table 8, read-out: IC50
  IC50: > 100 µM

## OC(c1ccc(C(F)(F)F)cc1)c1c(C(F)F)nc(C(F)(F)F)c(COCc2ccccc2)c1-c1ccc(F)cc1 (stereo not shown) [Compound 276]
[1]; Table 8, read-out: IC50
  IC50: > 100 µM

## CCOC(=O)c1c(C(F)(F)F)nc(C(F)F)c(C(O)c2ccc3ccccc3c2)c1-c1ccccc1 (stereo not shown) [Compound 278]
[1]; Table 8, read-out: IC50
  IC50: 80 µM

## O=Cc1c(C(F)(F)F)nc(C(F)F)c(Cc2ccc3ccccc3c2)c1-c1ccccc1 [Compound 279]
[1]; Table 8, read-out: IC50
  IC50: 15 µM

## OCc1c(C(F)(F)F)nc(C(F)F)c(C(O)c2ccc3ccccc3c2)c1-c1ccccc1 (stereo not shown) [Compound 280]
[1]; Table 8, read-out: IC50
  IC50: > 100 µM

## OCc1c(C(F)F)nc(C(F)(F)F)c(COCc2ccccc2)c1-c1ccc(F)cc1 [Compound 281]
[1]; Table 8, read-out: IC50
  IC50: > 100 µM

## CC(C)CC(O)c1c(C(F)F)nc(C(F)(F)F)c(C(F)c2ccc(C(F)(F)F)cc2)c1-c1ccc(F)cc1 (stereo not shown) [Compound 283]
[1]; Table 8, read-out: IC50
  IC50: 38.7 µM

## C=CC(O)c1c(C(F)F)nc(C(F)(F)F)c(C(=O)c2ccc(C(F)(F)F)cc2)c1-c1ccc(F)cc1 (stereo not shown) [Compound 284]
[1]; Table 8, read-out: IC50
  IC50: 22.7 µM

## O=Cc1c(C(F)F)nc(C(F)(F)F)c(C(=O)c2ccc3ccccc3c2)c1-c1ccccc1 [Compound 286]
[1]; Table 8, read-out: IC50
  IC50: 11.7 µM

## CC(C)CC(O)c1c(C(F)F)nc(C(F)(F)F)c(C(=O)c2ccc(C(F)(F)F)cc2)c1-c1ccc(F)cc1 (stereo not shown) [Compound 288]
[1]; Table 8, read-out: IC50
  IC50: 19 µM

## C=CC(OC(=O)c1ccccc1)c1c(C(F)F)nc(C(F)(F)F)c(C(=O)c2ccc(OCC)cc2)c1-c1ccccc1 (stereo not shown) [Compound 289]
[1]; Table 8, read-out: IC50
  IC50: 55.3 µM

## O=C(c1ccc(C(F)(F)F)cc1)c1c(C(F)(F)F)nc(C(F)F)c(CO)c1-c1ccc(F)cc1 [Compound 292]
[1]; Table 8, read-out: IC50
  IC50: 16.2 µM

## O=Cc1c(C(F)F)nc(C(F)(F)F)c(C(=O)c2ccc(Cl)cc2)c1-c1ccccc1 [Compound 293]
[1]; Table 8, read-out: IC50
  IC50: 10.2 µM

## CCOC(=O)c1c(C(F)(F)F)nc(C(F)F)c(CN2CCCC2)c1-c1ccc(F)cc1 [Compound 294]
[1]; Table 8, read-out: IC50
  IC50: 40 µM

## C=CC(O)c1c(C(F)F)nc(C(F)(F)F)c(C(=O)OC)c1CC(C)C (stereo not shown) [Compound 295]
[1]; IC50, Table 8
  IC50: > 100 µM

## CCOC(=O)c1c(C(F)(F)F)nc(C(F)F)c(C(O)c2ccc(C(F)(F)F)cc2)c1-c1ccccc1 (stereo not shown) [Compound 296]
[1]; Table 8, read-out: IC50
  IC50: > 100 µM

## OCc1c(C(F)(F)F)nc(C(F)F)c(CN2CCCC2)c1-c1ccccc1 [Compound 297]
[1]; Table 8, read-out: IC50
  IC50: > 100 µM
